# Measured values reported in publication PMC8698959, “A Combination of Structural, Genetic, Phenotypic and Enzymatic Analyses Reveals the Importance of a Predicted Fucosyltransferase to Protein O-Glycosylation in the Bacteroidetes” (Biomolecules, 2021).
# Key:
# [1] = molecular target: T1, rBF4306 (FucT) (Bacteroides fragilis, UniProt Q5L7H9); assay: TLC and ESI-MS of fucosylated product; type: biochemical; settings: 5 mM MgCl2, 5 mM MnCl2, pH 7.4, 37 °C, overnight
# T1 construct: gene BF9343_4192; tag kept; partly degraded
# Excerpt: (§1) All three enzymes transferred L-Fuc to pNP-α-Gal
# [2] = molecular target: T2, rPhep_4048 (FucT) (Pedobacter heparinus, UniProt C6XWF0); assay: TLC and ESI-MS of fucosylated product; type: biochemical; settings: donor; acceptor pNP-α-D-Gal 8 mM, 5 mM MgCl2, 5 mM MnCl2, pH 7.4, 37 °C, overnight
# T2 construct: gene Phep_4048; tag kept; partly degraded
# T2 sequence (C6XWF0 1-252): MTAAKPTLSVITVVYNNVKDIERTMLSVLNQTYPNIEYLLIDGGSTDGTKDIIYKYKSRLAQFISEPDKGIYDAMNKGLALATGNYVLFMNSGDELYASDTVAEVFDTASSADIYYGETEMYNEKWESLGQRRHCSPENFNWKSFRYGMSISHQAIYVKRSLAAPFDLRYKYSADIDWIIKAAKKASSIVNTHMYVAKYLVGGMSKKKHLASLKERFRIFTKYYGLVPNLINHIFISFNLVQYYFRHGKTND
# Excerpt: as §1
# T1 sequence (Q5L7H9 entry or part of it): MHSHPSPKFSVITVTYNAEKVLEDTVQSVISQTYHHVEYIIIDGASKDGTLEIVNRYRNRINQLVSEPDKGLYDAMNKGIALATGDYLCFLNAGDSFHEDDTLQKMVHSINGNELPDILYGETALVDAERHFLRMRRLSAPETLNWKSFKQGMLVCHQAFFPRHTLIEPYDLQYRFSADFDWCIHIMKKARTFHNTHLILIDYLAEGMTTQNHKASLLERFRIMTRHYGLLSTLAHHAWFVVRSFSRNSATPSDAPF
Compound,"TLC and ESI-MS of fucosylated product ([1]; donor, acceptor pNP-α-D-Glc 8 mM)",TLC and ESI-MS of fucosylated product [2],"TLC and ESI-MS of fucosylated product ([1]; 2 mM GDP-L-Fuc, 8 mM acceptor)"
C[C@@H]1O[C@H](OP(=O)(O)OP(=O)(O)OC[C@H]2O[C@@H](n3cnc4c(=O)[nH]c(N)nc43)[C@H](O)[C@@H]2O)[C@@H](O)[C@H](O)[C@@H]1O [GDP-L-Fuc],with GDP-L-Fuc serving as the Fuc donor. All three enzymes transferred L-Fuc to pNP-α-Gal,with GDP-L-Fuc serving as the Fuc donor. All three enzymes transferred L-Fuc to pNP-α-Gal,–
O=[N+]([O-])c1ccc(O[C@H]2O[C@H](CO)[C@@H](O)[C@H](O)[C@H]2O)cc1 [pNP-α-D-Glc],–,–,rBF4306 demonstrated very low activity with all substrates; pNP-α-Glc was the best substrate
